Target: Transient receptor potential cation channel subfamily M member 7 (Mus musculus) (UniProt Q923J1)
Assay: Inhibition of Tet-induced Flag-tagged mouse TRPM7 expressed in HEK293 cells assessed as inhibition of channel-mediated cell death in presence of Mg2+ incubated for 24 to 48 hrs by propidium iodide uptake assay
Type: cell-based
Parameters: concentration or dose not given beside the values
Details: not given

Chain of Transient receptor potential cation channel subfamily M member 7 (Mus musculus) (Q923J1 whole entry): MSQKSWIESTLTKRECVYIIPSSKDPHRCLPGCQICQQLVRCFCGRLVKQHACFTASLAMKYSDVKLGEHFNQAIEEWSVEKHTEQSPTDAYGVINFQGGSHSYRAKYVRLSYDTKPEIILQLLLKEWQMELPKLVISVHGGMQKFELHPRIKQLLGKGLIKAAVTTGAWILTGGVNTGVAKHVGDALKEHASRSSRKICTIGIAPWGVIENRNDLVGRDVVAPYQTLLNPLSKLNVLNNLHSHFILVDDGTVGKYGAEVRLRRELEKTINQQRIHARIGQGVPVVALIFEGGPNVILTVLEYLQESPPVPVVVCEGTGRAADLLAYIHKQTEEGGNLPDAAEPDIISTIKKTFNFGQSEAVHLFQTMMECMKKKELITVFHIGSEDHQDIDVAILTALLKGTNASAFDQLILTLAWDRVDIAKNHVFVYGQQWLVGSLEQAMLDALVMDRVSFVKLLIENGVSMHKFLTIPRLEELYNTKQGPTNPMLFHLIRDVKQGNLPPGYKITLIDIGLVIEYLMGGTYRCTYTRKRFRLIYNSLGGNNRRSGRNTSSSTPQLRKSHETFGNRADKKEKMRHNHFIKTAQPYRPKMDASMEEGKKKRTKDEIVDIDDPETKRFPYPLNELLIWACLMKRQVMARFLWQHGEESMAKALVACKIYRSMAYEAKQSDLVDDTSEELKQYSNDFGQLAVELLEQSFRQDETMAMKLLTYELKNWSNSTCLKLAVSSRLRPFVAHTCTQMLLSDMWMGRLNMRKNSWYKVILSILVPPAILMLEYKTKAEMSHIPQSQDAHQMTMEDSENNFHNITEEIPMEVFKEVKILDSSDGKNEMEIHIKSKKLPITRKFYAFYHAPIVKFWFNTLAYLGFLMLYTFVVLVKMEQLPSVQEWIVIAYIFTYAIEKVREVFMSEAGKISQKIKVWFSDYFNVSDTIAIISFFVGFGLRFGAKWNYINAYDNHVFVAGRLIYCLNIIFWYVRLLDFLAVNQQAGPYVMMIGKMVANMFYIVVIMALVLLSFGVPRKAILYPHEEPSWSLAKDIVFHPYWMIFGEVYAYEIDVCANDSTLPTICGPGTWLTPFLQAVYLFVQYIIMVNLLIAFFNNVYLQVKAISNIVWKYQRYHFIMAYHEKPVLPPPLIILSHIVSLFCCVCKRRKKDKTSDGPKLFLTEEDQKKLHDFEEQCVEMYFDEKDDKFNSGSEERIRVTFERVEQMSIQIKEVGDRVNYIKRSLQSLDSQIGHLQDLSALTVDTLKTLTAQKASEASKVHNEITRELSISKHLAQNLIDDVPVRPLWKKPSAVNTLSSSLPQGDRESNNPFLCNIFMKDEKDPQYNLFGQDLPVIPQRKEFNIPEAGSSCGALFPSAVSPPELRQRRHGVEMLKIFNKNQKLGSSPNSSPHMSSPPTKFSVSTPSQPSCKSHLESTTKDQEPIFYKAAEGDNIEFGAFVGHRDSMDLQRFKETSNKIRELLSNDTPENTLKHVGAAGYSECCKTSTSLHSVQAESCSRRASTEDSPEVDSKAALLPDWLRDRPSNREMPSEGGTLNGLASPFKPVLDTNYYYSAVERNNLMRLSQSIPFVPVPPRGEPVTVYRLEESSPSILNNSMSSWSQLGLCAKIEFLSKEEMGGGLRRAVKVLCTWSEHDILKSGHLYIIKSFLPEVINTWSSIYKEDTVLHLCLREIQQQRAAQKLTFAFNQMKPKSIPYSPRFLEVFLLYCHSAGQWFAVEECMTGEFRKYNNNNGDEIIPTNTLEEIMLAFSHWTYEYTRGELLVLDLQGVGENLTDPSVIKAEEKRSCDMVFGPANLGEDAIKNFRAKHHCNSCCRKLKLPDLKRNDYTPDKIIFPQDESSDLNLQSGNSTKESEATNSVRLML

| SMILES | inhibition |
| --- | --- |
| C=C(C)[C@@H]1CC[C@]2(C(=O)O)CC[C@]3(C)[C@H](CC[C@@H]4[C@@]5(C)CC[C@H](O)C(C)(C)[C@@H]5CC[C@]43C)[C@@H]12 | Dose-dependent effect |

Same assay, conditions: concentration not given here

| SMILES | inhibition |
| --- | --- |
| Oc1cc(C(F)(F)F)nc2ccc(F)cc12 | 80% |
| FC(F)(F)c1cc(Oc2ccc(Cl)cc2)ccc1-c1ncc(-c2cccc(Cl)c2)o1 | 70% |
| CCOC(=O)c1c(-n2c(C)ccc2C)sc2c1CCCC2 | 70% |
| Cc1noc(C)c1C(=O)OCc1ccc(-c2ccc(F)cc2F)o1 | 50% |
| CCCSC(=S)c1c(C)nn(-c2ccc(C)cc2)c1O | 50% |
| O=c1ccsn1-c1ccc(F)c(Cl)c1 | < 30% |
| c1ccc2c(c1)Nc1nc3ccccc3nc1N2 | < 30% |
| O=C(Oc1ccccc1)c1csc(C2COc3ccccc3O2)n1 (stereo not given) | < 30% |
| N=C(NS(=O)(=O)c1cc(Cl)c(Oc2ccc([N+](=O)[O-])cc2Cl)c(Cl)c1)c1cccnc1 | 70% |
| COc1ccccc1N1CCN(Cc2c[nH]c3ccccc23)CC1 | 70% |
| Cc1onc(-c2c(Cl)cccc2Cl)c1C(=O)Oc1ccc2c(C(F)(F)F)cc(=O)oc2c1 | < 30% |
| C=CC/N=C1/NC(=O)C(CC(=O)Nc2ccc(Cl)cc2)S1 (stereo not given) | 50% |
| CCOC(C)CNC(=S)N/N=C/c1cccnc1 (stereo not given) | < 30% |
| O=C(/C=C/c1ccc(OC(F)(F)F)cc1)NCc1ccco1 | 60% |
| O=c1ccn(-c2ccc(F)cc2)nc1-c1ccnc(SCc2ccc(C(F)(F)F)cc2)n1 | < 30% |
| O=C(CSc1ssc(=S)c1-c1ccccc1)Nc1ccc(Cl)cc1 | < 30% |
| Cn1c(SCC(=O)Nc2cccc3nsnc23)nnc1C(F)(F)F | < 30% |
| Cc1csc(NC(=O)C(F)(F)F)c1C(N)=O | 50% |
| Clc1cccc2nnsc12 | 30% |
| CSc1nc2c(c(/C=C/c3ccccc3)c1C#N)CCC2 | < 30% |
| O=c1[nH]c2c(Cl)c(Cl)ccc2c(O)c1-c1ccccc1 | 60% |
| Cc1cc(NS(=O)(=O)c2cccs2)[nH]n1 | < 30% |

| SMILES | inhibition |
| --- | --- |
| Cc1ccc(C(=O)Nc2ccc(Oc3ccc(C(C)(C)C)cc3)nc2)cc1 | 70% |
| NCCCNc1ccc2c3c(nn2CCNCCO)-c2c(O)ccc(O)c2C(=O)c13 | 80% |
| Cc1cc(Sc2ncnc3cc(-c4ccc(F)cc4)sc23)c(C)cc1Cl | < 30% |
| CSC1=N/C(=C\c2ccc(Cl)cc2)C(=O)N1Cc1ccco1 | 60% |
| N#C/C(=N\Nc1cccc(C(F)(F)F)c1)C(=O)c1csc(-c2cccnc2)n1 | 60% |
| COc1ccc(CCN2C(=O)CS/C2=N\c2ccc(C(C)(C)C)cc2)cc1OC | < 30% |
| COc1cc2c(cc1OC)C(c1cccc(C)c1)NCC2 (stereo not given) | 60% |
| Cc1ccc(S(=O)(=O)Nc2ccc(C)cc2NS(=O)(=O)c2ccc(Cl)cc2)cc1 | 40% |
| Fc1ccc(CN2CCN(Cc3c[nH]c4ccccc34)CC2)cc1 | 70% |
| O=C(Nc1ccc(Oc2ccccc2)cc1)Nc1cccs1 | 70% |
| Cc1c(-c2nc(-c3ccc(C(C)(C)C)cc3)no2)n(C)oc1=O | < 30% |
| FC(F)(F)COc1ccc(-c2nc(-c3ccc(Cl)cc3)cs2)cn1 | 50% |
| CC(C)(C)c1ccc(OCc2ncc(S(=O)(=O)c3ccccc3)c(N)n2)cc1 | < 30% |
| Cc1nc(-c2ccc(S(=O)(=O)Nc3cccc(S(N)(=O)=O)c3)s2)cs1 | < 30% |
| CC1(C)CC(=O)c2c(SCCOC(=O)Nc3cccc(Cl)c3)sc(C#N)c2C1 | < 30% |
| CC1(C)C=Cc2ccc(OCC(=O)Nc3ccccc3)cc2O1 | 30% |
| Cc1cc(S(=O)(=O)Cc2noc(-c3c(C)noc3C)n2)c(C)cc1Cl | 40% |
| CC(C)(C)c1ccc(-c2noc(-c3ccc4c(c3)CCO4)n2)cc1 | 60% |
| CN1c2ccsc2C(O)=C(C(=O)Nc2cccc(Cl)c2)S1(=O)=O | < 30% |
| Cc1ccc(-c2nc(NC(=O)Nc3ccccc3)sc2C)cc1Cl | < 30% |
| OC1(C(F)(F)F)CC(c2cccs2)=NO1 (stereo not given) | 30% |
| N#Cc1c(Cl)cccc1Oc1ccc(S(=O)(=O)Nc2ccccc2)cc1 | 40% |

Reference: ChEMBL document CHEMBL3727350, “Agents and methods for treating ischemic and other diseases” (2014)
